Columns and labels:
Assay in all cases: relative viability (nuclei count vs DMSO), 5 days (fraction); higher = more cells survive
[1] = compound: C#Cc1cccc(Nc2ncnc3cc(OC)c(OCCCCCCC(=O)NO)cc23)c1 [CUDC-101] + Cc1cc(Nc2cc(N3CCN(C)CC3)nc(Sc3ccc(NC(=O)C4CC4)cc3)n2)n[nH]1 [Tozasertib] (partner 0.1 µM)
Summary of the method: (§1)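 One day after seeding in 1536-well plates, lung cancer cell lines were dosed by pin tool. Dosing was either single-drug or a fixed anchor-drug dose plus five library-drug doses (not always all listed) in √10 steps. After 5 days, nuclei were stained in one fix-and-stain step and counted on 4× images, and relative viability is the nuclei count of treated wells over that of vehicle wells, given as the median of duplicate plates.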

[2] = compound: C#Cc1cccc(Nc2ncnc3cc(OC)c(OCCCCCCC(=O)NO)cc23)c1 [CUDC-101] + CC(=O)c1c(C)c2cnc(Nc3ccc(N4CCNCC4)cn3)nc2n(C2CCCC2)c1=O [Palbociclib] (partner 0.5 µM)
Summary of the method: as §1

[3] = compound: C1=CC=C2C(=C1)N=C(S2)C(C#N)C3=NC(=NC=C3)NCCC4=CN=CC=C4 + O=C(CCCCCCC(=O)Nc1ccccc1)NO [Vorinostat] (partner 1 µM)
Summary of the method: as §1

[4] = compound: C1=CC=C2C(=C1)N=C(S2)C(C#N)C3=NC(=NC=C3)NCCC4=CN=CC=C4 + COc1cc2c(Oc3ccc(NC(=O)C4(C(=O)Nc5ccc(F)cc5)CC4)cc3F)ccnc2cc1OCCCN1CCOCC1 [Foretinib] (partner 0.25 µM)
Summary of the method: as §1

| Cell Line | relative viability ([1]; first compound 0.01 µM) | relative viability ([1]; first compound 0.03162 µM) | relative viability ([1]; first compound 0.1 µM) | relative viability ([1]; first compound 0.3162 µM) | relative viability ([1]; first compound 1 µM) | relative viability ([2]; first compound 0.01 µM) | relative viability ([2]; first compound 0.03162 µM) | relative viability ([2]; first compound 0.1 µM) | relative viability ([2]; first compound 0.3162 µM) | relative viability ([2]; first compound 1 µM) | relative viability ([3]; first compound 0.005 µM) | relative viability ([3]; first compound 0.01581 µM) | relative viability ([3]; first compound 0.05 µM) | relative viability ([3]; first compound 0.1581 µM) | relative viability ([3]; first compound 0.5 µM) | relative viability ([4]; first compound 0.005 µM) | relative viability ([4]; first compound 0.01581 µM) | relative viability ([4]; first compound 0.05 µM) | relative viability ([4]; first compound 0.1581 µM) | relative viability ([4]; first compound 0.5 µM) |
| --- | --- | --- | --- | --- | --- | --- | --- | --- | --- | --- | --- | --- | --- | --- | --- | --- | --- | --- | --- | --- |
| NCI-H522 | 0.602 | 0.53 | 0.539 | 0.528 | 0.366 | 0.96 | 0.795 | 0.876 | 0.985 | 0.741 | 0.824 | 0.774 | 0.875 | 0.712 | 0.864 |  |  |  |  |  |
| RERF-LC-KJ | 0.516 | 0.505 | 0.476 | 0.442 | 0.371 | 1.15 | 1.16 | 1.01 | 0.844 | 0.813 | 0.603 | 0.623 | 0.609 | 0.7 | 0.578 | 0.966 | 0.826 | 0.86 | 0.882 | 0.762 |
| A-427 | 0.211 | 0.227 | 0.219 | 0.205 | 0.165 | 0.562 | 0.538 | 0.501 | 0.496 | 0.487 | 0.9 | 0.86 | 0.811 | 0.902 | 0.887 | 1.22 | 1.21 | 0.946 | 1.22 | 1.32 |
| EKVX | 0.392 | 0.32 | 0.394 | 0.366 | 0.295 | 0.374 | 0.335 | 0.336 | 0.405 | 0.323 | 0.506 | 0.731 | 0.677 | 0.821 | 0.741 | 0.8 | 0.833 | 0.83 | 0.79 | 0.777 |
| NCI-H460 | 0.379 | 0.393 | 0.396 | 0.629 | 0.373 | 0.277 | 0.223 | 0.135 | 0.149 | 0.0952 |  | 0.651 | 0.721 | 0.782 | 0.354 | 0.969 | 1.15 | 1.06 | 1.08 | 1.08 |
| HARA | 0.116 | 0.108 | 0.101 | 0.0938 | 0.0704 | 0.278 | 0.204 | 0.246 | 0.224 | 0.172 | 0.663 | 0.718 | 0.559 | 0.59 | 0.614 | 0.869 | 0.876 | 0.831 | 0.975 | 0.786 |
| NCI-H1944 | 0.268 | 0.213 | 0.275 | 0.236 | 0.17 | 0.33 | 0.298 | 0.322 | 0.311 | 0.216 | 0.638 | 0.521 | 0.537 | 0.558 | 0.52 | 0.875 | 0.91 | 0.853 | 0.929 | 0.885 |
| BEN | 0.54 | 0.505 | 0.452 | 0.47 | 0.427 | 0.432 | 0.477 | 0.522 | 0.513 | 0.479 | 0.496 | 0.58 | 0.548 | 0.643 | 0.577 | 0.658 | 0.557 | 0.684 | 0.847 | 0.858 |
| PC-14 | 0.656 | 0.544 | 0.391 | 0.528 | 0.115 | 0.629 | 0.425 | 0.338 | 0.0958 | 0.0539 | 0.642 | 0.769 | 0.675 | 0.753 | 0.576 | 0.899 | 1.05 | 0.917 | 1.08 | 0.819 |
| NCI-H322M | 0.477 | 0.476 | 0.45 | 0.413 | 0.339 | 0.515 | 0.47 | 0.465 | 0.497 | 0.436 | 0.771 | 0.842 | 0.789 | 0.9 | 0.935 | 0.887 | 0.983 | 0.838 | 0.972 | 0.982 |
| NCI-H1651 | 0.622 | 0.712 | 0.613 | 0.788 | 0.585 | 0.548 | 0.543 | 0.497 | 0.529 | 0.493 | 0.555 | 0.538 | 0.572 | 0.609 | 0.559 | 0.687 | 0.872 | 0.774 | 0.801 | 0.757 |
| LCLC-97TM1 | 0.197 | 0.357 | 0.152 | 0.195 | 0.104 | 0.203 | 0.228 | 0.252 | 0.173 | 0.164 | 0.608 | 0.694 | 0.724 | 0.725 | 0.624 | 0.942 | 0.96 | 0.899 | 0.956 | 0.983 |
| NCI-H727 | 0.56 | 0.556 | 0.56 | 0.673 | 0.407 | 0.642 | 0.61 | 0.563 | 0.714 | 0.57 | 1.38 | 1.08 | 1.1 | 1.38 | 1.37 | 1.07 | 0.73 | 0.922 | 1.03 | 0.809 |
| NCI-H1623 | 0.406 | 0.379 | 0.389 | 0.356 | 0.272 |  |  |  |  |  |  |  |  |  |  | 0.9 | 0.858 | 0.769 | 0.888 | 0.819 |
| NCI-H1666 | 0.594 | 0.564 | 0.676 | 0.565 | 0.507 | 0.64 | 0.661 | 0.661 | 0.599 | 0.664 | 0.959 | 0.922 | 1.07 | 1.04 | 1 | 0.897 | 0.951 | 0.971 | 0.981 | 0.838 |
| IA-LM |  |  |  |  |  |  |  |  |  |  | 0.742 | 1.09 | 1.02 | 1.11 | 0.613 | 0.691 | 1.21 | 1.17 | 1.24 | 0.916 |
| NCI-H1792 |  |  |  |  |  | 0.675 | 0.649 | 0.7 | 0.675 | 0.647 |  |  |  |  |  |  |  |  |  |  |
| NCI-H1299 |  |  |  |  |  |  |  |  |  |  |  |  |  |  |  | 1.1 | 1.1 | 1.05 | 1.09 | 1.09 |

Reference: the supplement of paper PMC10307832
